Measured values from US10294202B2, “Pyrrolidinones as herbicides” (FMC Corporation, priority 2013, dated 2019).

Assays:
oat, wild = assay: Test C pre-/postemergence herbicide test; assay type: in vivo, Avena fatua
Procedure, shortened: (§1)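 Pre-emergence: seeds sown in loam/sand blend and treated with compound in surfactant-containing solvent. Post-emergence: plants at 2–18 cm (1- to 4-leaf stage) in peat-based medium sprayed with the same formulation. Visual rating versus controls after 13–15 days in greenhouse, scale 0 (no effect) to 100 (complete control).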

nutsedge, yellow = assay: Test C pre-/postemergence herbicide test; assay type: in vivo, Cyperus esculentus; details: for Nutsedge, Yellow plant response rating: scale 0 to 100, 0 is no effect and 100 is complete control
Procedure, shortened: as §1

barnyardgrass = assay: Test A pre-/postemergence herbicide test; assay type: in vivo, Echinochloa crus-galli
Procedure, shortened: (§2)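 Seeds in loam–sand blend received preemergence directed soil spray; separately, plants 2–10 cm at one- to two-leaf stage received postemergence spray, both with test chemicals in non-phytotoxic solvent with surfactant. After ~10 days in greenhouse, injury rated visually against untreated controls, 0 (no effect) to 100 (complete control).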

pigweed = assay: Test A pre-/postemergence herbicide test; assay type: in vivo, Amaranthus retroflexus
Procedure, shortened: as §2

kochia = assay: Test C pre-/postemergence herbicide test; assay type: in vivo, Kochia scoparia
Procedure, shortened: as §1

ragweed = assay: Test C pre-/postemergence herbicide test; assay type: in vivo, Ambrosia elatior
Procedure, shortened: as §1

corn = assay: Test C pre-/postemergence herbicide test; assay type: in vivo, Zea mays
Procedure, shortened: as §1

chickweed = assay: Test C postemergence herbicide test; assay type: in vivo, Stellaria media
Source text: At the same time, plants selected from these crop and weed species and also barley (winter barley, Hordeum vulgare), […]), chickweed (common chickweed, Stellaria media), deadnettle (henbit deadnettle, Lamium amplexicaule), and canarygrass (littleseed canarygrass, Phalaris minor) were planted in pots containing Redi-Earth® planting medium (Scotts Company, 14111 Scottslawn Road, Marysville, Ohio 43041) comprising spaghnum peat moss, vermiculite, wetting agent and starter nutrients and treated with postemergence applications of test chemicals formulated in the same manner. Plants ranged in height from 2 to 18 cm (1- to 4-leaf stage) for postemergence treatments. Treated plants and controls were maintained in a greenhouse for 13 to 15 days, after which time all species were compared to controls and visually evaluated. Plant response ratings, summarized in Table C, are based on a scale of 0 to 100 where 0 is no effect and 100 is complete control. A dash (-) response means no test result.

[1] = Postemergence, 31 g ai/ha, scale 0 (no effect) to 100 (complete control)
[2] = Postemergence, 62 g ai/ha, scale 0 to 100 (0 no effect, 100 complete control)
[3] = Postemergence, 125 g ai/ha, scale 0 to 100 (0 no effect, 100 complete control)
[4] = Postemergence, 250 g ai/ha, scale 0 to 100 (0 no effect, 100 complete control)
[5] = Preemergence, 62 g ai/ha, scale 0 to 100
[6] = Preemergence, 125 g ai/ha, scale 0 to 100 (0 no effect, 100 complete control)
[7] = Postemergence, 125 g ai/ha, 0 to 100 scale, 0 no effect, 100 complete control
[8] = Postemergence, 500 g ai/ha, 0 to 100 scale (0 no effect, 100 complete control)
[9] = Preemergence, 125 g ai/ha, visual rating on 0 to 100 scale (0 no effect, 100 complete control)
[10] = preemergence, 500 g ai/ha, 0 to 100 scale (0 no effect, 100 complete control)
[11] = preemergence, 500 g ai/ha, 0 to 100 scale
[12] = Preemergence, 31 g ai/ha, scale 0 to 100, 0 is no effect and 100 is complete control
[13] = 31 g ai/ha, scale 0 (no effect) to 100 (complete control)
[14] = 62 g ai/ha, scale 0 to 100 (0 no effect, 100 complete control)
[15] = 125 g ai/ha, scale 0 to 100 (0 no effect, 100 complete control)
[16] = 250 g ai/ha, scale 0 to 100 (0 no effect, 100 complete control)
[17] = Preemergence, 31 g ai/ha, scale 0 to 100 (0 no effect, 100 complete control)
[18] = Preemergence, 250 g ai/ha, scale 0 to 100 (0 no effect, 100 complete control)
[19] = Postemergence, 1000 g ai/ha, 0 to 100 scale (0 no effect, 100 complete control)
[20] = Preemergence, 1000 g ai/ha, visual rating on 0 to 100 scale (0 no effect, 100 complete control), approx. 10 days

O=C1NCC(c2ccc(F)c(C(F)(F)F)c2)C1C(=O)Nc1ccccc1F (racemic) [Compound 76]
40: Plant response rating, Kochia (kochia; [1]) | Plant response rating, Ragweed (ragweed; [2]) | Plant response rating, Ragweed (ragweed; [3]) | Plant response rating, Corn (corn; [6]) | Plant response rating, Chickweed (chickweed; [13]) | Plant response rating, Chickweed (chickweed; [14])
50: Plant response rating, Pigweed (pigweed; [7]) | Plant response rating, Pigweed (pigweed; [11]) | Plant response rating, Kochia (kochia; [2]) | Plant response rating, Kochia (kochia; [3])
90: Plant response rating, Barnyardgrass (barnyardgrass; [8])
65: Plant response rating, Kochia (kochia; [4]) | Plant response rating (scale of 0 to 100), Corn (corn; Preemergence, 250 g ai/ha) | Plant response rating, Chickweed (chickweed; [15])
60: Plant response rating, Pigweed (pigweed; [8])
80: Plant response rating, Barnyardgrass (barnyardgrass; [7]) | Barnyardgrass plant response rating (barnyardgrass; [9]) | Plant response rating, Barnyardgrass (barnyardgrass; [10]) | Plant response rating, Chickweed (chickweed; [16])
0: Plant response rating, Oat, Wild (oat, wild; [1]) | Plant response rating, Oat, Wild (oat, wild; [2]) | Plant response rating, Oat, Wild (oat, wild; [3]) | Plant response rating, Oat, Wild (oat, wild; [4]) | Plant response rating, Nutsedge, Yellow (nutsedge, yellow; [1]) | Plant response rating, Nutsedge, Yellow (nutsedge, yellow; [2]) | Plant response rating, Nutsedge, Yellow (nutsedge, yellow; [3]) | Plant response rating, Nutsedge, Yellow (nutsedge, yellow; [4]) | Nutsedge, Yellow plant response rating (nutsedge, yellow; Preemergence, 31 g ai/ha) | Plant response rating, Nutsedge, Yellow (nutsedge, yellow; [5]) | Pigweed plant response rating (pigweed; [9]) | Plant response rating, Corn (corn; [1]) | Plant response rating, Corn (corn; [2]) | Plant response rating, Corn (corn; [3]) | Plant response rating, Corn (corn; [4]) | Corn plant response rating (corn; [12])
25: Plant response rating, Ragweed (ragweed; [1])
10: Plant response rating, Corn (corn; [5])
55: Plant response rating (scale of 0 to 100), Nutsedge, Yellow (nutsedge, yellow; Preemergence, 250 g ai/ha) | Plant response rating, Ragweed (ragweed; [4])
20: Plant response rating, Nutsedge, Yellow (nutsedge, yellow; [6])

O=C1NCC(c2ccccc2)C1C(=O)Nc1ccccc1F (racemic) [Compound 81]
80: Plant response rating, Barnyardgrass (barnyardgrass; [8]) | Plant response rating, Barnyardgrass (barnyardgrass; [10])
0: Plant response rating, Oat, Wild (oat, wild; [1]) | Plant response rating, Oat, Wild (oat, wild; [2]) | Plant response rating, Oat, Wild (oat, wild; [3]) | Plant response rating, Oat, Wild (oat, wild; [4]) | Oat, Wild plant response rating (oat, wild; [12]) | Plant response rating, Oat, Wild (oat, wild; [5]) | Plant response rating, Oat, Wild (oat, wild; [6]) | Plant response rating (scale of 0 to 100), Oat, Wild (oat, wild; Preemergence, 250 g ai/ha) | Plant response rating, Nutsedge, Yellow (nutsedge, yellow; [1]) | Plant response rating, Nutsedge, Yellow (nutsedge, yellow; [2]) | Plant response rating, Nutsedge, Yellow (nutsedge, yellow; [3]) | Plant response rating, Nutsedge, Yellow (nutsedge, yellow; [4]) | Nutsedge, Yellow plant response rating (nutsedge, yellow; Preemergence, 31 g ai/ha) | Plant response rating, Nutsedge, Yellow (nutsedge, yellow; [5]) | Plant response rating, Nutsedge, Yellow (nutsedge, yellow; [6]) | Plant response rating (scale of 0 to 100), Nutsedge, Yellow (nutsedge, yellow; Preemergence, 250 g ai/ha) | Plant response rating, Pigweed (pigweed; [7]) | Plant response rating, Pigweed (pigweed; [8]) | Pigweed plant response rating (pigweed; [9]) | Plant response rating, Pigweed (pigweed; [11]) | Plant response rating, Kochia (kochia; [1]) | Plant response rating, Kochia (kochia; [2]) | Plant response rating, Kochia (kochia; [3]) | Plant response rating, Kochia (kochia; [4]) | Plant response rating, Ragweed (ragweed; [1]) | Plant response rating, Ragweed (ragweed; [2]) | Plant response rating, Ragweed (ragweed; [3]) | Plant response rating, Ragweed (ragweed; [4]) | Ragweed plant response rating (ragweed; [12]) | Plant response rating, Ragweed (ragweed; [5]) | Plant response rating, Ragweed (ragweed; [6]) | Plant response rating (scale of 0 to 100), Ragweed (ragweed; Preemergence, 250 g ai/ha) | Plant response rating, Corn (corn; [1]) | Plant response rating, Corn (corn; [2]) | Plant response rating, Corn (corn; [3]) | Plant response rating, Corn (corn; [4]) | Corn plant response rating (corn; [12]) | Plant response rating, Corn (corn; [5]) | Plant response rating, Corn (corn; [6]) | Plant response rating (scale of 0 to 100), Corn (corn; Preemergence, 250 g ai/ha) | Plant response rating, Chickweed (chickweed; [13]) | Plant response rating, Chickweed (chickweed; [14]) | Plant response rating, Chickweed (chickweed; [15]) | Plant response rating, Chickweed (chickweed; [16])
30: Plant response rating, Barnyardgrass (barnyardgrass; [7])
40: Barnyardgrass plant response rating (barnyardgrass; [9])

O=C1NCC(c2ccc(F)cc2)C1C(=O)Nc1ccccc1F (racemic) [Compound 16]
0: Plant response rating, Nutsedge, Yellow (nutsedge, yellow; [5]) | Plant response rating, Nutsedge, Yellow (nutsedge, yellow; [6]) | Plant response rating, Pigweed (pigweed; [7]) | Plant response rating, Pigweed (pigweed; [8]) | Pigweed plant response rating (pigweed; [9]) | Plant response rating, Pigweed (pigweed; [11]) | Plant response rating, Kochia (kochia; [5]) | Plant response rating, Kochia (kochia; [6]) | Plant response rating, Ragweed (ragweed; [5]) | Plant response rating, Ragweed (ragweed; [6]) | Corn plant response rating (corn; [17]) | Plant response rating, Corn (corn; [5])
10: Plant response rating, Corn (corn; [18])
15: Plant response rating, Oat, Wild (oat, wild; [6])
70: Plant response rating, Barnyardgrass (barnyardgrass; [7])
90: Plant response rating, Barnyardgrass (barnyardgrass; [8]) | Plant response rating, Barnyardgrass (barnyardgrass; [10])
5: Plant response rating, Oat, Wild (oat, wild; [5]) | Plant response rating, Corn (corn; [6])
80: Barnyardgrass plant response rating (barnyardgrass; [9])

O=C1NCC(c2cc(F)c(F)c(F)c2)C1C(=O)Nc1ccccc1F (racemic) [Compound 34]
5: Plant response rating, Nutsedge, Yellow (nutsedge, yellow; [1]) | Plant response rating, Nutsedge, Yellow (nutsedge, yellow; [2]) | Plant response rating, Kochia (kochia; [1]) | Plant response rating, Kochia (kochia; [2]) | Plant response rating, Kochia (kochia; [3]) | Plant response rating, Kochia (kochia; [4]) | Plant response rating, Ragweed (ragweed; [1]) | Plant response rating, Ragweed (ragweed; [2]) | Plant response rating, Ragweed (ragweed; [3]) | Plant response rating, Ragweed (ragweed; [4]) | Plant response rating, Chickweed (chickweed; [15]) | Plant response rating, Chickweed (chickweed; [16])
10: Plant response rating, Nutsedge, Yellow (nutsedge, yellow; [3]) | Plant response rating, Nutsedge, Yellow (nutsedge, yellow; [4]) | Plant response rating, Corn (corn; [18])
90: Plant response rating, Barnyardgrass (barnyardgrass; [19]) | Plant response rating, Barnyardgrass (barnyardgrass; [20])
0: Plant response rating, Oat, Wild (oat, wild; [1]) | Plant response rating, Oat, Wild (oat, wild; [2]) | Plant response rating, Oat, Wild (oat, wild; [3]) | Plant response rating, Oat, Wild (oat, wild; [4]) | Plant response rating, Oat, Wild (oat, wild; [5]) | Plant response rating, Nutsedge, Yellow (nutsedge, yellow; [5]) | Plant response rating, Nutsedge, Yellow (nutsedge, yellow; [6]) | Plant response rating, Pigweed (pigweed; [19]) | Plant response rating, Pigweed (pigweed; [20]) | Plant response rating, Kochia (kochia; [5]) | Plant response rating, Kochia (kochia; [6]) | Plant response rating, Ragweed (ragweed; [5]) | Plant response rating, Ragweed (ragweed; [6]) | Plant response rating, Corn (corn; [1]) | Plant response rating, Corn (corn; [2]) | Plant response rating, Corn (corn; [3]) | Plant response rating, Corn (corn; [4]) | Corn plant response rating (corn; [17]) | Plant response rating, Corn (corn; [5]) | Plant response rating, Corn (corn; [6]) | Plant response rating, Chickweed (chickweed; [13]) | Plant response rating, Chickweed (chickweed; [14])
60: Plant response rating, Oat, Wild (oat, wild; [6])

O=C1NCC(c2ccc3c(c2)OC(F)(F)O3)C1C(=O)Nc1cccc(F)c1F (stereo not drawn) [Compound 62]
50: Plant response rating, Oat, Wild (oat, wild; [6])
20: Plant response rating, Nutsedge, Yellow (nutsedge, yellow; [6]) | Corn plant response rating (corn; [17]) | Plant response rating, Corn (corn; [5])
30: Plant response rating, Pigweed (pigweed; [7]) | Plant response rating, Pigweed (pigweed; [11]) | Plant response rating, Corn (corn; [6])
80: Plant response rating, Barnyardgrass (barnyardgrass; [8]) | Barnyardgrass plant response rating (barnyardgrass; [9]) | Plant response rating, Barnyardgrass (barnyardgrass; [10])
10: Plant response rating, Nutsedge, Yellow (nutsedge, yellow; [5])
15: Plant response rating, Kochia (kochia; [6]) | Plant response rating, Ragweed (ragweed; [5])
55: Plant response rating, Corn (corn; [18])
40: Plant response rating, Oat, Wild (oat, wild; [5])
70: Plant response rating, Barnyardgrass (barnyardgrass; [7]) | Plant response rating, Pigweed (pigweed; [8])
0: Pigweed plant response rating (pigweed; [9]) | Plant response rating, Kochia (kochia; [5])
45: Plant response rating, Ragweed (ragweed; [6])
